Like-named read-outs stand apart in the source and are kept apart here.
Columns and labels:
Format in all cases: binding
[1] = target: T1, HeLa cell extract proteins (Homo sapiens, UniProt P15311)
T1 construct: endogenous in cells; host or cells: HeLa cell extract

[2] = target: T2, HeLa cell extract proteins (Homo sapiens, UniProt P22234)
T2 construct: endogenous in cells; host or cells: HeLa cell extract
T2 sequence (P22234 1-425): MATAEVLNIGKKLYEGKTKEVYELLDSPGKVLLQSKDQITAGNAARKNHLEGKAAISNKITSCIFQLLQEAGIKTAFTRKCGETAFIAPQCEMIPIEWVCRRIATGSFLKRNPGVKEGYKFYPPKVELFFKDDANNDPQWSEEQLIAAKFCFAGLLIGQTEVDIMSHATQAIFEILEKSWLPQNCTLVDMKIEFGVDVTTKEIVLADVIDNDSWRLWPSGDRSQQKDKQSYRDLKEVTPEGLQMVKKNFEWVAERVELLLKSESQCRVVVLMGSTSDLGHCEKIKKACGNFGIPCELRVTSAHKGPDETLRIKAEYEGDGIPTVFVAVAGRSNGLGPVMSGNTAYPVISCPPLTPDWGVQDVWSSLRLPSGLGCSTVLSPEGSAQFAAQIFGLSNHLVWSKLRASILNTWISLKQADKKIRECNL

[3] = target: T3, HeLa cell extract proteins (Homo sapiens, UniProt Q14764)
T3 construct: endogenous in cells; host or cells: HeLa cell extract

[4] = target: T4, HeLa cell extract proteins (Homo sapiens, UniProt Q15008)
T4 construct: endogenous in cells; host or cells: HeLa cell extract
T4 sequence (Q15008 1-389): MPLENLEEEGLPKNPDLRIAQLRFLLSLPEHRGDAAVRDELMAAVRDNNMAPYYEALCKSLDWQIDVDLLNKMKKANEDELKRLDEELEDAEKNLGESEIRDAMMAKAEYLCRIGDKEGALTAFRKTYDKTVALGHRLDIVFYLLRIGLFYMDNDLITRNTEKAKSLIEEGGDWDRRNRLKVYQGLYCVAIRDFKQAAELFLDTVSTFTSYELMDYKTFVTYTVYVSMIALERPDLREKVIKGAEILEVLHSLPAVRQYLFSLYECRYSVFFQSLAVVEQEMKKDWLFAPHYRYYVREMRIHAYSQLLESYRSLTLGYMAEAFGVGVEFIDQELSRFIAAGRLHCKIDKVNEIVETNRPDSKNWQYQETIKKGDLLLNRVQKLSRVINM

[5] = target: T5, HeLa cell extract proteins (Homo sapiens, UniProt Q7L8L6)
T5 construct: endogenous in cells; host or cells: HeLa cell extract
T5 sequence (Q7L8L6 28-764): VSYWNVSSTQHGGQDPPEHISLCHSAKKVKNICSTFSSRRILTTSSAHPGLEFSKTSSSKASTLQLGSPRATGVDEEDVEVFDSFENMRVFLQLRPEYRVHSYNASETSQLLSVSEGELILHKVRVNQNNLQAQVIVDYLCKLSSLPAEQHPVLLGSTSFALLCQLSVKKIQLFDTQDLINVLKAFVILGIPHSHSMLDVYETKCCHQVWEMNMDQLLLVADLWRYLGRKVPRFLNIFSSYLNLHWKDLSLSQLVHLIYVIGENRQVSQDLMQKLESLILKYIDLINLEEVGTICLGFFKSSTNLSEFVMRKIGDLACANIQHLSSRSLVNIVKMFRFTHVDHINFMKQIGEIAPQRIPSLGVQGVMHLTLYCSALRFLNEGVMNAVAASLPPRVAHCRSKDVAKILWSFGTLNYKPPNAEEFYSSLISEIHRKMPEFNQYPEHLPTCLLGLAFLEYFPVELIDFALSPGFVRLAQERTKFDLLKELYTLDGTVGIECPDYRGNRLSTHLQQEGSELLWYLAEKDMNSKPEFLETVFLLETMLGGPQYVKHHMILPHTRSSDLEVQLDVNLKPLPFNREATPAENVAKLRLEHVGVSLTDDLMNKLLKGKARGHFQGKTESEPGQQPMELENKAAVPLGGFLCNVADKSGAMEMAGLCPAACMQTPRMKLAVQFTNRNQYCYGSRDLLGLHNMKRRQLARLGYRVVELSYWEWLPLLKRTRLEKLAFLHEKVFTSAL

[6] = target: T6, HeLa cell extract proteins (Homo sapiens, UniProt Q96PK6)
T6 construct: endogenous in cells; host or cells: HeLa cell extract
T6 sequence (Q96PK6 1-669): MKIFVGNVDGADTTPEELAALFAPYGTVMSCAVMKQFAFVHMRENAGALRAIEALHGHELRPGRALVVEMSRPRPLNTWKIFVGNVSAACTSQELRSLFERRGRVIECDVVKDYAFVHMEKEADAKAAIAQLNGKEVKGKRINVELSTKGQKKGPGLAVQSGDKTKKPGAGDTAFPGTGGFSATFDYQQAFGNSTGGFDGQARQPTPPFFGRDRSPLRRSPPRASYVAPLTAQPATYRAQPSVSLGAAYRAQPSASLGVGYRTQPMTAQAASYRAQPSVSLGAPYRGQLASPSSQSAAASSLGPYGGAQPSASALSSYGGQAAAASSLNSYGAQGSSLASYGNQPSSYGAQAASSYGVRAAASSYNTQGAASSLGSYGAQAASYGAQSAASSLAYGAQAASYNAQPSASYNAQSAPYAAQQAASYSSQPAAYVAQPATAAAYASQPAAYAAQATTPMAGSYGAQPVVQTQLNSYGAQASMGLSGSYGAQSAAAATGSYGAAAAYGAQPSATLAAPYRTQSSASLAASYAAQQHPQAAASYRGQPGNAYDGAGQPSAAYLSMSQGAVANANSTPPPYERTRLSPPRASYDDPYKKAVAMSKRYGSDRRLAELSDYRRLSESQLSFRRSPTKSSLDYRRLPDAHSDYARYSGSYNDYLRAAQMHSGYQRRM

[7] = target: T7, HeLa cell extract proteins (Homo sapiens, UniProt Q9GZT8)
T7 construct: endogenous in cells; host or cells: HeLa cell extract
T7 sequence (Q9GZT8 1-377): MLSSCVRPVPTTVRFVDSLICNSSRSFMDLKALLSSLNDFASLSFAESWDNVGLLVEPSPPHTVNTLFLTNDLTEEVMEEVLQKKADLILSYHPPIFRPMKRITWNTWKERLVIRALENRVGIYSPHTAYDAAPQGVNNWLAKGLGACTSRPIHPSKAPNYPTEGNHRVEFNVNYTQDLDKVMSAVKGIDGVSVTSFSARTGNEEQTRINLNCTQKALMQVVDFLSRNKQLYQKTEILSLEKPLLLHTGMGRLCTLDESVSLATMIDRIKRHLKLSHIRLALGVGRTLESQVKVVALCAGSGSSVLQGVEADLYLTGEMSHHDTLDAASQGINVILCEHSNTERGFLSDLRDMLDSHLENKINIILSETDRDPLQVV

T1 sequence (P15311 whole entry): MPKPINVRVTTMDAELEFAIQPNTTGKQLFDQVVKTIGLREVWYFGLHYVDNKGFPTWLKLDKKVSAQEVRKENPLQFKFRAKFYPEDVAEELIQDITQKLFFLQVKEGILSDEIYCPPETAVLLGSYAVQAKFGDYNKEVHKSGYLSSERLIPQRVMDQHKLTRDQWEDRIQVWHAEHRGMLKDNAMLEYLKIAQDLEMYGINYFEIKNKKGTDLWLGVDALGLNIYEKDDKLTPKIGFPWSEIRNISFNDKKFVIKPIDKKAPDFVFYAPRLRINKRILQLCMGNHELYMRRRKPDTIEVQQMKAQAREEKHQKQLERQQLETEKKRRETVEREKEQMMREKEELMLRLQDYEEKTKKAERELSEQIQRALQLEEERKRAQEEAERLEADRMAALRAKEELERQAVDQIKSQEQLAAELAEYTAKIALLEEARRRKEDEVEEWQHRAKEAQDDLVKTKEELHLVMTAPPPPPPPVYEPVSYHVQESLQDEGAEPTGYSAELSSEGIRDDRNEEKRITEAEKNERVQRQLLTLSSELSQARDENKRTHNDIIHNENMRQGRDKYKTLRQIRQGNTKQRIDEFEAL
T3 sequence (Q14764 whole entry): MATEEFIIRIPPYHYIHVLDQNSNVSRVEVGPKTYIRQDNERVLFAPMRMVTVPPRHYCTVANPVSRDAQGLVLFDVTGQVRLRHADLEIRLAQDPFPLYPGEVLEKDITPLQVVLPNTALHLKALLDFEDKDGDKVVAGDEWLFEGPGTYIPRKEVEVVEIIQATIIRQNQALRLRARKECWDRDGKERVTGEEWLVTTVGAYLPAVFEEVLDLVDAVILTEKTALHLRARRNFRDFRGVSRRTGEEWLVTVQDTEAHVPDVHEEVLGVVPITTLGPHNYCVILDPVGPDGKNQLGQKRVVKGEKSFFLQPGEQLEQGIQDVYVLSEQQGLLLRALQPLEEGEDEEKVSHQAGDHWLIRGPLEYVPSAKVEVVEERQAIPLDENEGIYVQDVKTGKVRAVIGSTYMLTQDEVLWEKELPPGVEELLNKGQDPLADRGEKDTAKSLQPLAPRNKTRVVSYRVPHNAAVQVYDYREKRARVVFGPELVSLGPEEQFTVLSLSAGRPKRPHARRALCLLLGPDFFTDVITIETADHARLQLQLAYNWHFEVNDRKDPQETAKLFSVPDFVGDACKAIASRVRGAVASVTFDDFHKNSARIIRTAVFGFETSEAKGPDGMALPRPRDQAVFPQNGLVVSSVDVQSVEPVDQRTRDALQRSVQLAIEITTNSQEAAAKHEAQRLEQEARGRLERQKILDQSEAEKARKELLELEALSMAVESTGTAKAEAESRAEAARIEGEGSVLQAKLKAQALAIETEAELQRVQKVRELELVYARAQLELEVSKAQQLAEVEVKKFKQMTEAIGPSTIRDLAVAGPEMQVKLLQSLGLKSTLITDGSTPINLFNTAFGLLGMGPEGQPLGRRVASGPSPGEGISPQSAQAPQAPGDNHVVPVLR

What does the source list for `Nc1nc2cccc(-c3ccccc3)c2n1Cc1ccc(Cl)c(Cl)c1` [compound 3]?
fold changes relative to vehicle control ([1]; protein EZR, HeLa): 0.8; fold changes relative to vehicle control ([2]; protein PAICS, HeLa): 0.94; fold changes relative to vehicle control ([3]; HeLa, protein MVP): 1.02; fold changes relative to vehicle control ([4]; protein PSMD6, HeLa): 1.72; fold changes relative to vehicle control ([5]; captured protein FASTKD5, HeLa): 1.06; fold changes relative to vehicle control ([6]; captured protein RBM14, HeLa): 0.87; fold changes relative to vehicle control ([7]; captured protein NIF3L1, HeLa): 0.98

Which results are given for `Nc1nc2[nH]cc(CCc3ccc(C(=O)N[C@@H](CCC(=O)O)C(=O)O)cc3)c2c(=O)[nH]1` [PTX, pemetrexed]?
fold changes relative to vehicle control [1]: 1; fold changes relative to vehicle control [2]: 0.86; fold changes relative to vehicle control [3]: 0.98; fold changes relative to vehicle control [4]: 0.69; fold changes relative to vehicle control [5]: 0.84; fold changes relative to vehicle control [6]: 0.99; fold changes relative to vehicle control [7]: 0.9

Which “fold changes relative to vehicle control” value ([1]; HeLa, protein EZR) does the source give for `Nc1nc2c(c(=O)[nH]1)N(C=O)C(CNc1ccc(C(=O)N[C@@H](CCC(=O)O)C(=O)O)cc1)CN2` (stereo partly shown) [LEU, leucovorin] here?
Its value is 0.94.

What about the “fold changes relative to vehicle control” value ([2]; HeLa, protein PAICS) of the same molecule?
The value was 0.97.

And the “fold changes relative to vehicle control” value ([3]; HeLa, protein MVP)?
The value was 0.99.

What about the “fold changes relative to vehicle control” value ([4]; HeLa, protein PSMD6) of the same molecule?
The value was 0.77.

What about the “fold changes relative to vehicle control” value ([5]; HeLa, protein FASTKD5) of the same molecule?
Its value is 0.87.

And the “fold changes relative to vehicle control” value ([6]; HeLa, captured protein RBM14)?
The value was 0.92.

What about the “fold changes relative to vehicle control” value ([7]; protein NIF3L1, HeLa) of the same molecule?
Its value is 0.95.

Which “fold changes relative to vehicle control” value ([1]; protein EZR, HeLa) does the source give for `CCCCCCOc1cccc(Cc2cnc(N)nc2N)c1` [compound 2] here?
The value was 1.87.

And the “fold changes relative to vehicle control” value ([2]; protein PAICS, HeLa)?
Its value is 1.68.

And the “fold changes relative to vehicle control” value ([3]; HeLa, protein MVP)?
Its value is 1.23.

And the “fold changes relative to vehicle control” value ([4]; protein PSMD6, HeLa)?
The value was 1.64.

And the “fold changes relative to vehicle control” value ([5]; captured protein FASTKD5, HeLa)?
The value was 0.94.

And the “fold changes relative to vehicle control” value ([6]; captured protein RBM14, HeLa)?
Its value is 1.

And the “fold changes relative to vehicle control” value ([7]; captured protein NIF3L1, HeLa)?
Its value is 0.97.

What does the source list for `NCCOCCOCC(=O)Nc1nc2ncc(CNc3ccc(C(=O)NC(CCC(=O)O)C(=O)O)cc3)nc2c(=O)[nH]1` (stereo not shown) [compound 6]?
fold changes relative to vehicle control ([1]; HeLa, protein EZR): 1.16; fold changes relative to vehicle control ([2]; HeLa, protein PAICS): 1.22; fold changes relative to vehicle control ([3]; HeLa, protein MVP): 0.96; fold changes relative to vehicle control ([4]; HeLa, protein PSMD6): 0.89; fold changes relative to vehicle control ([5]; HeLa, protein FASTKD5): 0.88; fold changes relative to vehicle control ([6]; HeLa, captured protein RBM14): 1.06; fold changes relative to vehicle control ([7]; protein NIF3L1, HeLa): 0.25

How did the “fold changes relative to vehicle control” value ([1]; protein EZR, HeLa) turn out when `CCCCCCOc1ccc(Cc2cnc(N)nc2N)cc1` [compound 1] was run?
The value was 1.23.

And the “fold changes relative to vehicle control” value ([2]; protein PAICS, HeLa)?
Its value is 1.07.

And the “fold changes relative to vehicle control” value ([3]; HeLa, protein MVP)?
The value was 1.06.

And the “fold changes relative to vehicle control” value ([4]; protein PSMD6, HeLa)?
The value was 0.94.

What about the “fold changes relative to vehicle control” value ([5]; captured protein FASTKD5, HeLa) of the same molecule?
The value was 1.07.

What about the “fold changes relative to vehicle control” value ([6]; captured protein RBM14, HeLa) of the same molecule?
Its value is 0.72.

And the “fold changes relative to vehicle control” value ([7]; captured protein NIF3L1, HeLa)?
Its value is 0.5.

Which “fold changes relative to vehicle control” value ([1]; HeLa, protein EZR) does the source give for `NCCCNc1ccc(C(=O)NC(CCC(=O)O)C(=O)O)cc1` (stereo not shown) [compound 7] here?
The value was 0.92.

What about the “fold changes relative to vehicle control” value ([2]; HeLa, protein PAICS) of the same molecule?
The value was 0.98.

And the “fold changes relative to vehicle control” value ([3]; HeLa, protein MVP)?
The value was 1.28.

And the “fold changes relative to vehicle control” value ([4]; HeLa, protein PSMD6)?
Its value is 0.82.

And the “fold changes relative to vehicle control” value ([5]; HeLa, protein FASTKD5)?
The value was 0.97.

And the “fold changes relative to vehicle control” value ([6]; HeLa, captured protein RBM14)?
The value was 1.1.

And the “fold changes relative to vehicle control” value ([7]; protein NIF3L1, HeLa)?
Its value is 0.94.
